Patent US20120100227A1, “KINASE PROTEIN BINDING INHIBITORS” (University of Florida Research Foundation, priority 2009, published 2012)

Assays:
[1] = tested on: colon cancer HCT116 p53+/+ cells; assay: Detachment assay, HCT116 p53+/+; assay type: cell-based, human; conditions: dose-dependent
Protocol: (§1) Detachment Assay. Cells were plated with and without inhibitors for 24 hours, and detached and attached cells were counted in a hemocytometer. We calculated the percent of detachment by dividing the number of detached cells by the total number of cells. The percent of detached cells was calculated in three independent experiments.
(§2) To study M13 effect in colon cancer cells and its dependence on p53 pathway, we did similar experiments to BT474 cells with colon cancer HCT116 p53−/− and p53+/+ cells. […] Thus, the in vitro effect of M13 on viability, detachment and apoptosis was p53-independent.

[2] = tested on: colon cancer HCT116 p53+/+ cells; assay: Cell viability assay, HCT116 p53+/+; assay type: cell-based, human; conditions: dose-dependent
Protocol: (§3) Cell lines and culture. BT474 breast carcinoma cells were maintained in RPMI1640 medium supplemented with 10% fetal bovine serum (FBS), 5 μg/ml insulin, and 1 μg/ml penicillin/streptomycin. The MCF-7 cell line was obtained from ATCC and maintained according to the manufacturer's protocol. HCT116p53+/+ and p53−/− colon cancer cells were maintained in McCoy's5A medium with 10% FBS.
(§4) Cell Viability Assay. The cells were treated with compounds at different concentrations for 24 hours. The 3-(4,5-dimethylthiazol-2-yl)-5-(3-carboxymethoxyphenyl)-2-(4-sulfophenyl)-2H-tetrazolium compound from Promega Viability kit (Madison, Ill.) was added, and the cells were incubated at 37 C for 1-2 hours. The optical density on 96-plate was analyzed with a microplate reader at 490 nm to determine cell viability.
as §2

[3] = molecular target: T1, complex of FAK and Mdm-2 in BT474 cells (Homo sapiens, UniProt Q05397); assay: Immunoprecipitation of FAK, complex with Mdm-2; assay type: cell-based; design: dose or concentration left out as unconfirmed
T1 construct: We immunoprecipitated FAK and found complex of FAK with Mdm-2; endogenous in cells; host or cells: BT474 breast cancer cells
T1 sequence (Q05397 whole entry, one chain of several): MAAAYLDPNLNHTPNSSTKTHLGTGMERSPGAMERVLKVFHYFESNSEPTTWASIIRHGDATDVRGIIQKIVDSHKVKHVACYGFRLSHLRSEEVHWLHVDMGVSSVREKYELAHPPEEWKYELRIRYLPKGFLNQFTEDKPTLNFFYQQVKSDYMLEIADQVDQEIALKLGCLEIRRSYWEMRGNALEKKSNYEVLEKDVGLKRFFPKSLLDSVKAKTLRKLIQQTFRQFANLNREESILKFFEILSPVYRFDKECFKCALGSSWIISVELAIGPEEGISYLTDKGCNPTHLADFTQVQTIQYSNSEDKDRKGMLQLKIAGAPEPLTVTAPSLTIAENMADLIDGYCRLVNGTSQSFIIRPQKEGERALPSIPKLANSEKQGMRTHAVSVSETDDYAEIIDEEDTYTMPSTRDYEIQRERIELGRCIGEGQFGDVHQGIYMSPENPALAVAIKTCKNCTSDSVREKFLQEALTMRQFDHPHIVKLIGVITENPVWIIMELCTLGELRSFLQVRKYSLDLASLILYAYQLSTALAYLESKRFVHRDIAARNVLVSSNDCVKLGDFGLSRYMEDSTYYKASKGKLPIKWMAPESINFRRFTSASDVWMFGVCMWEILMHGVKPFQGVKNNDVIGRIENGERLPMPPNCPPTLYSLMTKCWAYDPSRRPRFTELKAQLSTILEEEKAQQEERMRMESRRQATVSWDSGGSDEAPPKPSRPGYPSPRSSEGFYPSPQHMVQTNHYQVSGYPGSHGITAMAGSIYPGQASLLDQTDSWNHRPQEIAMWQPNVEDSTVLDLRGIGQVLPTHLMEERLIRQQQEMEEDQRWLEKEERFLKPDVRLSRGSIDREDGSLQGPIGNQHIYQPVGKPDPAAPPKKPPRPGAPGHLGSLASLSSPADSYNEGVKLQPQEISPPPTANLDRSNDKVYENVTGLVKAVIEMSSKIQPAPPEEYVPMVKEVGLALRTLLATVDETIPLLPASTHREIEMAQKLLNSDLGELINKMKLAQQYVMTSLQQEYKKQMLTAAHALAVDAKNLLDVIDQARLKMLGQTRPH
Protocol: Immunoprecipitation. Immunoprecipitation was performed according to the standard protocol. In brief, the pre-cleared lysates with equal amount of protein were incubated with 1 μg of primary antibody and 30 μl A/G agarose beads overnight at 4° C. The precipitates were washed with lysis buffer three times and re-suspended in 2×Laemmli buffer. The boiled samples were used for Western blotting, as described above.
M13 disrupts complex of FAK and Mdm-2 in BT474 cells. We immunoprecipitated FAK and found complex of FAK with Mdm-2, confirming and reproducing data of Lim et al, Molecular Cell, 2008. At […] dose of M13, there was decreased level of FAK and complex with Mdm-2.

[4] = tested on: BT474 breast cancer cells; assay: Cell viability (MTT) assay, BT474; assay type: cell-based, human; conditions: different concentrations, 24 hours
Protocol: as §3, §4

[5] = tested on: colon cancer HCT116 p53−/− cells; assay: Detachment assay, HCT116 p53−/−; assay type: cell-based, human; conditions: dose-dependent
Protocol: as §1, §2

[6] = tested on: colon cancer HCT116 p53−/− cells; assay: Cell viability assay, HCT116 p53−/−; assay type: cell-based, human; conditions: dose-dependent
Protocol: as §3, §4, §2

[7] = tested on: BT474 breast cancer cells; assay: Detachment assay, BT474; assay type: cell-based, human; conditions: BT474, 24 hours
Protocol: as §1

[8] = tested on: colon cancer HCT116 p53−/− cells; assay: Apoptosis assay, HCT116 p53−/−; assay type: cell-based, human; conditions: dose-dependent
Protocol: (§5) Apoptosis Assay. Detached cells were collected and fixed in 3.7% formaldehyde in 1×PBS solution for the apoptosis assay. Detection of apoptosis was done with Hoechst 33342 staining. The percent of apoptotic cells was calculated as a ratio of apoptotic detached cells divided by the total number of cells in three independent experiments in several fields with the fluorescent microscope. For each experiment 300 cells per treatment were counted.
as §2

[9] = tested on: MCF-7 breast cancer cells; assay: Viability, detachment and apoptosis, MCF-7; assay type: cell-based, human; conditions: MCF-7, compared with BT474
Protocol: as §3, §4, §1
Apoptosis Assay. […] The percent of apoptotic cells was calculated as a ratio of apoptotic detached cells divided by the total number of cells in three independent experiments in several fields with the fluorescent microscope. […]

BT474 cells [10] = assay: Tumor growth in nude mice, BT474; assay type: in vivo; conditions: BT474 subcutaneous tumors, 30 mg/kg IP daily 5 days/week for 3 weeks
Protocol: (§6) Tumor Growth in Nude Mice in vivo. Female nude mice, 6 weeks old, were purchased from Harlan Laboratory. The mice were maintained in the animal facility and all experiments were performed in compliance with NIH animal-use guidelines and IACUC protocol approved by the UF Animal Care Committee. BT474 cells were injected, 2×10^6 cells/injection subcutaneously. HCT116p53−/− and HCT116p53+/+ cells were injected subcutaneously into the left and right side of the same mice to decrease variations. In preliminary experiment different doses of the compound were introduced into the mice, and 30-50 mg/kg was chosen as optimal, non-toxic doses. The day after injection, the M13 compound was introduced by IP injection at 30 mg/kg dose daily 5 days/week for 3 weeks. Tumor diameters were measured with calipers and tumor volume in mm^3 was calculated using this formula=(width)^2×Length/2. At the end of experiment, tumor weight and volume was determined.
M13 decreased breast tumorigenesis in vivo Breast cancer BT474 cells were implanted into the mice to generate tumors.

[11] = tested on: BT474 breast cancer cells; assay: Apoptosis assay (Hoechst 33342), BT474; assay type: cell-based, human; conditions: BT474, Hoechst 33342 staining of detached cells
Protocol: as §5

HCT116p53+/+ cells = assay: Tumor growth in nude mice, HCT116 p53+/+; assay type: in vivo; conditions: HCT116 p53+/+ subcutaneous tumors, 30 mg/kg IP; no significant difference to p53−/−
Protocol: as §6
(§7) M13 decreased similarly colon tumorigenesis in both HCT116 p53+/+ and p53−/− in vivo. […] Thus, in vivo effect of M13 on tumorigenesis is p53-independent.

[12] = tested on: different cancer cells, including breast, melanoma, colon and pancreatic cancers; assay: MTT cell viability assay in different cancer cells; assay type: cell-based, human; conditions: MTT assay with 24 M inhibitors, M13 the best of all tested
Protocol: as §4
The name of this compound is Monotritylthymidine and it is available and was ordered from Sigma.

HCT116p53−/− cells = assay: Tumor growth in nude mice, HCT116 p53−/−; assay type: in vivo; conditions: HCT116 p53−/− subcutaneous tumors, 30 mg/kg IP; no significant difference to p53+/+
Protocol: as §6, §7

[13] = design: species or system nude mice; conditions: female, nude, mouse, in vivo
Protocol: as §6

BT474 cells [14] = assay: Western blotting of BT474 cells (FAK, Y397-FAK, Mdm-2, p53, caspase-8); assay type: cell-based, human; conditions: BT474, different doses of M13, Western blot
Protocol: Western Blotting. Cells or homogenized tumor samples were washed twice with cold 1×PBS and lysed on ice for 30 minutes in a buffer containing: 50 mM Tris-HCl (pH 7.5), 150 mM NaCl, 1% Triton-X, 0.5% NaDOC, 0.1% SDS, 5 mM EDTA, 50 mM NaF, 1 mM NaVO3, 10% glycerol and protease inhibitors: 10 μg/ml leupeptin, 10 μg/ml PMSF and 1 μg/m1 aprotinin. The lysates were cleared by centrifugation at 10,000 rpm for 30 minutes at 4° C. Protein concentrations were determined using a Bio-Rad Kit. The boiled samples were loaded on Ready SDS-10% PAGE gels (Bio Rad, Inc) and used for Western blot analysis with the protein-specific antibody. Immunoblots were developed with chemiluminescence Renaissance reagent (NEN Life Science Products, Inc). For quantification, densitometry of protein bands was performed with NIH Scion Image software.
M13 caused dose-dependent increase of Mdm-2, decrease of FAK and activation of caspase-8 in BT474 cells. We treated BT474 cells with different doses of M13 and performed Western blotting with anti-FAK, Y397-FAK, Mdm-2, p53 and caspase-8 antibodies.

[15] = tested on: colon cancer HCT116 p53+/+ cells; assay: Apoptosis assay, HCT116 p53+/+; assay type: cell-based, human; conditions: dose-dependent
Protocol: as §5, §2

Cc1cn(C2CC(O)C(COC(c3ccccc3)(c3ccccc3)c3ccccc3)O2)c(=O)[nH]c1=O (stereo not shown) [M13, 1-[4-hydroxy-5-[tri(phenyl)methoxymethyl]oxolan-2-yl]-5-methylpyrimidine-2,4-dione]
detachment [1]: increased detachment | viability [2]: equally decreased viability | association of FAK and Mdm-2 (complex) [3]: decreased association of FAK and Mdm-2 | viability [4]: decreased viability of BT474 breast cancer cells in a dose-dependent manner | detachment [5]: increased detachment | viability [6]: equally decreased viability | detachment [7]: dose-dependent increase detachment | apoptosis [8]: increased detachment and apoptosis | effect on viability, detachment and apoptosis [9]: the same as with BT474 cells | breast tumorigenesis in vivo (BT474 cells [10]): effectively decreased breast tumorigenesis | apoptosis [11]: dose-dependent increase detachment and apoptosis | tumor size (HCT116p53+/+ cells): decrease of tumor size | viability of cancer cells [12]: significantly decreased viability of most cancer cells | tumor size (HCT116p53−/− cells): decrease of tumor size | optimal, non-toxic doses [13]: 30 to 50 mg/kg | FAK levels (BT474 cells [14]): decreased FAK levels | Mdm-2 levels (BT474 cells [14]): increased Mdm-2 levels | activation of caspase-8 (BT474 cells [14]): caused activation of caspase-8 | apoptosis [15]: increased detachment and apoptosis
